Test results published in patent US20080249088A1, “Topical Delivery of Antifungal Drugs” (priority 2007, published 2008).

Experiment: solubility in water
Format: physicochemical
Protocol: In the preferred embodiment, a 100 ml. mixture would be created by mixing 1 gram of butenafine with 5 ml. of benzyl alcohol at room temperature. This would then be dissolved into 85 ml. of ethanol, then 10 ml. of water would be added.

For `CN(Cc1ccc(C(C)(C)C)cc1)Cc1cccc2ccccc12` [Butenafine, butenafine], the solubility in water was “limited solubility”.
